Measurements: the supplement of paper PMC10307832

Tests used:
YM155 = compound: COCC[n+]1c2c(n(Cc3cnccn3)c1C)C(=O)c1ccccc1C2=O [YM155]; test: relative viability (nuclei count vs DMSO), 5 days (fraction); higher = more cells survive
Procedure, shortened: (§1)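 Lung cancer cell lines in 1536-well plates were kept overnight at 37 °C, then pinned with five library-drug doses (not always all listed) spaced by √10 on vehicle-anchored plates. After 5 days without medium change, cells were fixed, permeabilised and Hoechst-stained in one step, imaged at 4×, and nuclei were counted with MetaXpress. Viability is treated-well nuclei divided by vehicle-well nuclei, taken as the median over plates. Plates passed only with control CV below 25% and at least one doubling.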

Quizartinib = compound: CC(C)(C)c1cc(NC(=O)Nc2ccc(-c3cn4c(n3)sc3cc(OCCN5CCOCC5)ccc34)cc2)no1 [Quizartinib]; test: as above
Procedure, shortened: as §1

Cell Line	relative viability (YM155; 0.002 µM)	relative viability (YM155; 0.006325 µM)	relative viability (YM155; 0.02 µM)	relative viability (YM155; 0.06325 µM)	relative viability (Quizartinib; 0.001 µM)	relative viability (Quizartinib; 0.003162 µM)	relative viability (Quizartinib; 0.01 µM)	relative viability (Quizartinib; 0.03162 µM)	relative viability (Quizartinib; 0.1 µM)
NCI-H1975	0.826	0.883	0.921	0.679	0.853	0.891	0.966	1.03	1.01
NCI-H2023	0.872	1.01	0.866	0.71	0.881	0.999	0.938	–	1.01
COR-L 105	0.914	0.804	0.912	0.692	0.864	0.961	0.906	0.87	1.05
NCI-H23	0.734	0.925	0.957	0.529	0.742	1.01	0.918	0.896	1.05
ChaGo-K-1	0.906	1	0.987	0.918	0.773	1.05	1.01	0.851	1.05
NCI-H441	0.9	1.15	0.795	0.759	0.919	0.946	0.945	0.764	1.14
